Reference: the OligoGym collection
HELM strings list units from the 5' end as sugar, base in round brackets, then linkage (d deoxyribose, r ribose, m 2'-O-methyl, p phosphodiester). Strings are as the collection lists them; they lack the last nucleoside at the 3' end of the tested compound. [moe] = 2'-O-(2-methoxyethyl) (MOE); [sp] = phosphorothioate linkage; [m5C] = 5-methylcytosine

Target: GFAP
Assay: mouse, dose not given
Details: ASO

## RNA1{[moe]([m5C])[sp].[moe](A)p.[moe](T)p.[moe](T)p.[moe](T)[sp].d(G)[sp].d(T)[sp].d([m5C])[sp].d(T)[sp].d(T)[sp].d(T)[sp].d(A)[sp].d(T)[sp].[moe](T)p.[moe](T)p.[moe](T)[sp].[moe](T)}$$$$ (last 3' nucleoside missing)
  3 h FOB score: 0 score 0-7

## RNA1{[moe]([m5C])[sp].[moe](A)p.[moe](T)p.[moe](T)p.[moe](T)[sp].d(G)[sp].d(T)[sp].d([m5C])[sp].d(T)[sp].d(T)[sp].d(T)[sp].d(A)[sp].d(T)[sp].d(T)[sp].d(T)[sp].[moe](T)p.[moe](T)p.[moe]([m5C])[sp].[moe]([m5C])}$$$$ (last 3' nucleoside missing)
  3 h FOB score: 0 score 0-7

## RNA1{[moe]([m5C])[sp].[moe](A)p.[moe](T)p.[moe](T)p.[moe](T)p.[moe](G)p.d(T)[sp].d([m5C])[sp].d(T)[sp].d(T)[sp].d(T)[sp].d(A)[sp].d(T)[sp].d(T)[sp].d(T)[sp].d(T)[sp].[moe](T)p.[moe]([m5C])[sp].[moe]([m5C])}$$$$ (last 3' nucleoside missing)
  3 h FOB score: 0 score 0-7

## RNA1{[moe]([m5C])[sp].[moe](A)p.[moe](T)p.[moe](T)p.[moe]([m5C])[sp].d(A)[sp].d([m5C])[sp].d(T)[sp].d(A)[sp].d(A)[sp].d(T)[sp].d(A)[sp].d(T)[sp].[moe](T)p.[moe](T)p.[moe](A)[sp].[moe](A)}$$$$ (last 3' nucleoside missing)
  3 h FOB score: 0 score 0-7

## RNA1{[moe]([m5C])[sp].[moe](A)p.[moe](T)p.[moe](T)p.d(T)[sp].d(G)[sp].d(T)[sp].d([m5C])[sp].d(T)[sp].d(T)[sp].d(T)[sp].d(A)[sp].d(T)[sp].d(T)[sp].[moe](T)p.[moe](T)p.[moe](T)p.[moe]([m5C])[sp].[moe]([m5C])}$$$$ (last 3' nucleoside missing)
  3 h FOB score: 0 score 0-7

## RNA1{[moe]([m5C])[sp].[moe](A)p.[moe](T)p.[moe]([m5C])p.[moe](T)[sp].d(G)[sp].d([m5C])[sp].d(T)[sp].d(T)[sp].d([m5C])[sp].d([m5C])[sp].d(T)[sp].d(G)[sp].d(G)[sp].d(A)[sp].[moe](G)p.[moe](T)p.[moe](G)[sp].[moe](G)}$$$$ (last 3' nucleoside missing)
  3 h FOB score: 1 score 0-7

## RNA1{[moe]([m5C])[sp].[moe](A)p.[moe]([m5C])p.[moe](A)p.[moe](T)[sp].d(T)[sp].d([m5C])[sp].d(A)[sp].d([m5C])[sp].d(T)[sp].d(A)[sp].d(A)[sp].d(T)[sp].[moe](A)p.[moe](T)p.[moe](T)[sp].[moe](T)}$$$$ (last 3' nucleoside missing)
  3 h FOB score: 0 score 0-7

## RNA1{[moe]([m5C])[sp].[moe](A)p.[moe]([m5C])p.[moe](A)p.[moe](T)p.[moe](T)p.d([m5C])[sp].d(A)[sp].d([m5C])[sp].d(T)[sp].d(A)[sp].d(A)[sp].d(T)[sp].d(A)[sp].d(T)[sp].d(T)[sp].[moe](T)p.[moe](A)[sp].[moe](A)}$$$$ (last 3' nucleoside missing)
  3 h FOB score: 0 score 0-7

## RNA1{[moe]([m5C])[sp].[moe](A)p.[moe]([m5C])p.[moe](A)p.[moe](T)p.d(T)[sp].d([m5C])[sp].d(A)[sp].d([m5C])[sp].d(T)[sp].d(A)[sp].d(A)[sp].d(T)[sp].d(A)[sp].d(T)[sp].[moe](T)p.[moe](T)p.[moe](A)[sp].[moe](A)}$$$$ (last 3' nucleoside missing)
  3 h FOB score: 0 score 0-7

## RNA1{[moe]([m5C])[sp].[moe](A)p.[moe]([m5C])p.[moe](A)p.d(T)[sp].d(T)[sp].d([m5C])[sp].d(A)[sp].d([m5C])[sp].d(T)[sp].d(A)[sp].d(A)[sp].d(T)[sp].d(A)[sp].[moe](T)p.[moe](T)p.[moe](T)p.[moe](A)[sp].[moe](A)}$$$$ (last 3' nucleoside missing)
  3 h FOB score: 0 score 0-7

## RNA1{[moe]([m5C])[sp].[moe](A)p.[moe]([m5C])p.[moe](G)p.[moe](T)p.[moe]([m5C])p.d(A)[sp].d([m5C])[sp].d(A)[sp].d(T)[sp].d(T)[sp].d([m5C])[sp].d(A)[sp].d([m5C])[sp].d(T)[sp].d(A)[sp].[moe](A)p.[moe](T)[sp].[moe](A)}$$$$ (last 3' nucleoside missing)
  3 h FOB score: 0 score 0-7

## RNA1{[moe]([m5C])[sp].[moe](A)p.[moe]([m5C])p.[moe](G)p.[moe](T)p.d([m5C])[sp].d(A)[sp].d([m5C])[sp].d(A)[sp].d(T)[sp].d(T)[sp].d([m5C])[sp].d(A)[sp].d([m5C])[sp].d(T)[sp].[moe](A)p.[moe](A)p.[moe](T)[sp].[moe](A)}$$$$ (last 3' nucleoside missing)
  3 h FOB score: 0 score 0-7

## RNA1{[moe]([m5C])[sp].[moe](A)p.[moe]([m5C])p.[moe](G)p.d(T)[sp].d([m5C])[sp].d(A)[sp].d([m5C])[sp].d(A)[sp].d(T)[sp].d(T)[sp].d([m5C])[sp].d(A)[sp].d([m5C])[sp].[moe](T)p.[moe](A)p.[moe](A)p.[moe](T)[sp].[moe](A)}$$$$ (last 3' nucleoside missing)
  3 h FOB score: 0 score 0-7

## RNA1{[moe]([m5C])[sp].[moe](G)p.[moe](G)p.[moe](A)p.[moe](T)[sp].d([m5C])[sp].d(T)[sp].d([m5C])[sp].d(T)[sp].d(T)[sp].d(T)[sp].d([m5C])[sp].d(A)[sp].d(G)[sp].d(G)[sp].[moe](G)p.[moe]([m5C])p.[moe](T)[sp].[moe](G)}$$$$ (last 3' nucleoside missing)
  3 h FOB score: 5 score 0-7

## RNA1{[moe]([m5C])[sp].[moe](G)p.[moe](G)p.[moe]([m5C])p.[moe](T)[sp].d([m5C])[sp].d(T)[sp].d([m5C])[sp].d(T)[sp].d([m5C])[sp].d(A)[sp].d(T)[sp].d([m5C])[sp].d(T)[sp].d(G)[sp].[moe](T)p.[moe]([m5C])p.[moe](A)[sp].[moe](A)}$$$$ (last 3' nucleoside missing)
  3 h FOB score: 2 score 0-7

## RNA1{[moe]([m5C])[sp].[moe](G)p.[moe](T)p.[moe](A)p.[moe](T)[sp].d(T)[sp].d(G)[sp].d(T)[sp].d(G)[sp].d(A)[sp].d(G)[sp].d(G)[sp].d([m5C])[sp].d(T)[sp].d(T)[sp].[moe](T)p.[moe](T)p.[moe](G)[sp].[moe](A)}$$$$ (last 3' nucleoside missing)
  3 h FOB score: 7 score 0-7

## RNA1{[moe]([m5C])[sp].[moe](G)p.[moe](T)p.[moe](G)p.[moe](T)[sp].d([m5C])[sp].d(A)[sp].d(G)[sp].d([m5C])[sp].d([m5C])[sp].d([m5C])[sp].d(T)[sp].d(G)[sp].d(A)[sp].d(G)[sp].[moe]([m5C])p.[moe](A)p.[moe]([m5C])[sp].[moe]([m5C])}$$$$ (last 3' nucleoside missing)
  3 h FOB score: 2 score 0-7

## RNA1{[moe]([m5C])[sp].[moe](G)p.[moe](T)p.[moe]([m5C])p.[moe](A)[sp].d([m5C])[sp].d(A)[sp].d(T)[sp].d(T)[sp].d([m5C])[sp].d(A)[sp].d([m5C])[sp].d(T)[sp].[moe](A)p.[moe](A)p.[moe](T)[sp].[moe](A)}$$$$ (last 3' nucleoside missing)
  3 h FOB score: 0 score 0-7

## RNA1{[moe]([m5C])[sp].[moe](G)p.[moe](T)p.[moe]([m5C])p.[moe](A)p.[moe]([m5C])p.d(A)[sp].d(T)[sp].d(T)[sp].d([m5C])[sp].d(A)[sp].d([m5C])[sp].d(T)[sp].d(A)[sp].d(A)[sp].d(T)[sp].[moe](A)p.[moe](T)[sp].[moe](T)}$$$$ (last 3' nucleoside missing)
  3 h FOB score: 0 score 0-7

## RNA1{[moe]([m5C])[sp].[moe](G)p.[moe](T)p.[moe]([m5C])p.[moe](A)p.d([m5C])[sp].d(A)[sp].d(T)[sp].d(T)[sp].d([m5C])[sp].d(A)[sp].d([m5C])[sp].d(T)[sp].d(A)[sp].d(A)[sp].[moe](T)p.[moe](A)p.[moe](T)[sp].[moe](T)}$$$$ (last 3' nucleoside missing)
  3 h FOB score: 0 score 0-7

## RNA1{[moe]([m5C])[sp].[moe](G)p.[moe](T)p.[moe]([m5C])p.d(A)[sp].d([m5C])[sp].d(A)[sp].d(T)[sp].d(T)[sp].d([m5C])[sp].d(A)[sp].d([m5C])[sp].d(T)[sp].d(A)[sp].[moe](A)p.[moe](T)p.[moe](A)p.[moe](T)[sp].[moe](T)}$$$$ (last 3' nucleoside missing)
  3 h FOB score: 0 score 0-7

## RNA1{[moe]([m5C])[sp].[moe](G)p.[moe]([m5C])p.[moe](A)p.[moe](G)[sp].d([m5C])[sp].d(A)[sp].d(T)[sp].d(T)[sp].d(T)[sp].d(G)[sp].d(T)[sp].d([m5C])[sp].d(T)[sp].d(T)[sp].[moe](T)p.[moe](A)p.[moe](T)[sp].[moe](T)}$$$$ (last 3' nucleoside missing)
  3 h FOB score: 5 score 0-7

## RNA1{[moe]([m5C])[sp].[moe](T)p.[moe](A)p.[moe](G)p.[moe](T)p.[moe]([m5C])p.d(A)[sp].d(G)[sp].d([m5C])[sp].d([m5C])[sp].d(T)[sp].d(G)[sp].d(G)[sp].d(T)[sp].d(T)[sp].d(A)[sp].[moe](G)p.[moe]([m5C])[sp].[moe]([m5C])}$$$$ (last 3' nucleoside missing)
  3 h FOB score: 4 score 0-7

## RNA1{[moe]([m5C])[sp].[moe](T)p.[moe](A)p.[moe](G)p.[moe](T)p.d([m5C])[sp].d(A)[sp].d(G)[sp].d([m5C])[sp].d([m5C])[sp].d(T)[sp].d(G)[sp].d(G)[sp].d(T)[sp].d(T)[sp].[moe](A)p.[moe](G)p.[moe]([m5C])[sp].[moe]([m5C])}$$$$ (last 3' nucleoside missing)
  3 h FOB score: 2 score 0-7

## RNA1{[moe]([m5C])[sp].[moe](T)p.[moe](A)p.[moe](G)p.d(T)[sp].d([m5C])[sp].d(A)[sp].d(G)[sp].d([m5C])[sp].d([m5C])[sp].d(T)[sp].d(G)[sp].d(G)[sp].d(T)[sp].[moe](T)p.[moe](A)p.[moe](G)p.[moe]([m5C])[sp].[moe]([m5C])}$$$$ (last 3' nucleoside missing)
  3 h FOB score: 4 score 0-7

## RNA1{[moe]([m5C])[sp].[moe](T)p.[moe](G)p.[moe]([m5C])p.[moe](T)[sp].d([m5C])[sp].d(T)[sp].d(T)[sp].d(T)[sp].d([m5C])[sp].d([m5C])[sp].d([m5C])[sp].d(T)[sp].d([m5C])[sp].d(A)[sp].[moe]([m5C])p.[moe](T)p.[moe](T)[sp].[moe](T)}$$$$ (last 3' nucleoside missing)
  3 h FOB score: 0 score 0-7
